pEC50, pIC50: −log10 of the molar value.
Key:
[1] = target: T1, HCV NS3/4A protease complex, BMS strain (UniProt P27958, species not given/STRAIN_BMS); test: FRET peptide assay to monitor HCV NS3/4A proteolytic activity (BMS strain); type: biochemical, Hepatitis C virus (genotype 1a); conditions: NS3/4A BMS strain; read-out: IC50 Range
T1 construct: said of H77 and J4L6S; fused on or other part: A three-lysine solubilising tail at the C-terminus of NS4A and a His tag (pET21b, Ni-NTA purification)
T1 sequence (P27958 1027-1657, change not shown, one chain of several): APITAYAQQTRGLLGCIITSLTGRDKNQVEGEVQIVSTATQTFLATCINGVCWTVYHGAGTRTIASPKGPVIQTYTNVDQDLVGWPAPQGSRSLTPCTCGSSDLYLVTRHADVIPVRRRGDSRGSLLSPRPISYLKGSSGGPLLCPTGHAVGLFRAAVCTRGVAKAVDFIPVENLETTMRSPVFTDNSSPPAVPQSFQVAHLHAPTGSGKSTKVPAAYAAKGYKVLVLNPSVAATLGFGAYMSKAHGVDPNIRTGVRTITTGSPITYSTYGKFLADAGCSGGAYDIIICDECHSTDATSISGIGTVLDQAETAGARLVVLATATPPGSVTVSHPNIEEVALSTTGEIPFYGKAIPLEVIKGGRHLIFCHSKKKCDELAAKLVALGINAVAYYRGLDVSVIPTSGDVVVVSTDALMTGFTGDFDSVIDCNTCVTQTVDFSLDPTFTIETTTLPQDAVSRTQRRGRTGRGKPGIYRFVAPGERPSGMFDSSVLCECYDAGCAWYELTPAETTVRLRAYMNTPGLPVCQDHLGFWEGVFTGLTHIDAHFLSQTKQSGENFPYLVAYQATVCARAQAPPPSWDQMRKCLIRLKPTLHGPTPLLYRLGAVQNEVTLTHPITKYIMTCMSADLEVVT
Description: HCV NS3 protease complexes, derived from the BMS strain, H77 strain or J4L6S strain, were generated, as described below. These purified recombinant proteins were generated for use in a homogeneous assay (see below) to provide an indication of how effective compounds of the present disclosure would be in inhibiting HCV NS3 proteolytic activity.
Serum from an HCV-infected patient was obtained from Dr. T. Wright, San Francisco Hospital. An engineered full-length cDNA (compliment deoxyribonucleic acid) template of the HCV genome (BMS strain) was constructed from DNA fragments obtained by reverse transcription-PCR (RT-PCR) of serum RNA (ribonucleic acid) and using primers selected on the basis of homology between other genotype 1a strains. From the determination of the entire genome sequence, a genotype 1a was assigned to the HCV isolate according to the classification of Simmonds et al. (See P Simmonds, K A Rose, S Graham, S W Chan, F McOmish, B C Dow, E A Follett, P L Yap and H Marsden, J. Clin. Microbiol., 31(6), 1493-1503 (1993)). […] The infectious clones, H77 (1a genotype) and J4L6S (1b genotype) were obtained from R. Purcell (NIH) and the sequences are published in Genbank (AAB67036, see Yanagi, M., Purcell, R. H., Emerson, S. U. and Bukh, J. Proc. Natl. Acad. Sci. U.S.A. 94(16), 8738-8743 (1997); AF054247, see Yanagi, M., St Claire, M., Shapiro, M., Emerson, S. U., Purcell, R. H. and Bukh, J, Virology 244 (1), 161-172. (1998)).
The H77 and J4L6S strains were used for production of recombinant NS3/4A protease complexes. DNA encoding the recombinant HCV NS3/4A protease complex (amino acids 1027 to 1711) for these strains were manipulated as described by P. Gallinari et al. (see Gallinari P, Paolini C, Brennan D, Nardi C, Steinkuhler C, De Francesco R. Biochemistry. 38(17):5620-32, (1999)). Briefly, a three-lysine solubilizing tail was added at the 3′-end of the NS4A coding region. The cysteine in the P1 position of the NS4A-NS4B cleavage site (amino acid 1711) was changed to a glycine to avoid the proteolytic cleavage of the lysine tag. Furthermore, a cysteine to serine mutation was introduced by PCR at amino acid position 1454 to prevent the autolytic cleavage in the NS3 helicase domain. The variant DNA fragment was cloned in the pET21b bacterial expression vector (Novagen) and the NS3/4A complex was expressed in Escherichia coli strain BL21 (DE3) (Invitrogen) following the protocol described by P. Gallinari et al. (see Gallinari P, Brennan D, Nardi C, Brunetti M, Tomei L, Steinkuhler C, De Francesco R., J Virol. 72(8):6758-69 (1998)) with modifications. Briefly, the NS3/4A protease complex expression was induced with 0.5 mM Isopropyl β-D-1-thiogalactopyranoside (IPTG) for 22 hours (h) at 20° C. A typical fermentation (1 Liter (L)) yielded approximately 10 grams (g) of wet cell paste. The cells were resuspended in lysis buffer (10 mL/g) consisting of 25 mM N-(2-Hydroxyethyl)Piperazine-N′-(2-Ethane Sulfonic acid) (HEPES), pH 7.5, 20% glycerol, 500 mM Sodium Chloride (NaCl), 0.5% Triton X-100, 1 microgram/milliliter (“μg/mL”) lysozyme, 5 mM Magnesium Chloride (MgCl2), 1 μg/ml Dnasel, 5 mM β-Mercaptoethanol (βME), Protease inhibitor-Ethylenediamine Tetraacetic acid (EDTA) free (Roche), homogenized and incubated for 20 minutes (min) at 4° C. The homogenate was sonicated and clarified by ultra-centrifugation at 235000 g for 1 h at 4° C. Imidazole was added to the supernatant to a final concentration of 15 mM and the pH adjusted to 8.0. The crude protein extract was loaded on a Nickel-Nitrilotriacetic acid (Ni-NTA) column pre-equilibrated with buffer B (25 mM HEPES, pH 8.0, 20% glycerol, 500 mM NaCl, 0.5% Triton X-100, 15 mM imidazole, 5 mM βME). The sample was loaded at a flow rate of 1 mL/min. The column was washed with 15 column volumes of buffer C (same as buffer B except with 0.2% Triton X-100). The protein was eluted with 5 column volumes of buffer D (same as buffer C except with 200 mM Imidazole). […]

[2] = tested on: HCV replicon in HUH-7 cells; test: HCV replicon FRET assay; type: cell-based, Hepatitis C virus (strain 1b); conditions: Hepatitis C virus, Huh-7; HCV replicon, for compounds tested; read-out: EC50 Range
Description: An HCV replicon whole cell system was established as described by Lohmann V, Komer F, Koch J, Herian U, Theilmann L, Bartenschlager R., Science 285(5424):110-3 (1999). This system enabled us to evaluate the effects of our HCV Protease compounds on HCV RNA replication. Briefly, using the HCV strain 1b sequence described in the Lohmann paper (Assession number: AJ238799), an HCV cDNA was synthesized by Operon Technologies, Inc. (Alameda, Calif.), and the full-length replicon was then assembled in plasmid pGem9zf(+) (Promega, Madison, Wis.) using standard molecular biology techniques. The replicon consists of (i) the HCV 5′ UTR fused to the first 12 amino acids of the capsid protein, (ii) the neomycin phosphotransferase gene (neo), (iii) the IRES from encephalomyocarditis virus (EMCV), and (iv) HCV NS3 to NS5B genes and the HCV 3′ UTR. Plasmid DNAs were linearized with Scal and RNA transcripts were synthesized in vitro using the T7 MegaScript transcription kit (Ambion, Austin, Tex.) according to manufacturer's directions. In vitro transcripts of the cDNA were transfected into the human hepatoma cell line, HUH-7. […] Resulting cell lines were characterized for positive and negative strand RNA production and protein production over time.
The HCV replicon FRET assay was developed to monitor the inhibitory effects of compounds described in the disclosure on HCV viral replication. HUH-7 cells, constitutively expressing the HCV replicon, were grown in Dulbecco's Modified Eagle Media (DMEM) (Gibco-BRL) containing 10% Fetal calf serum (FCS) (Sigma) and 1 mg/ml G418 (Gibco-BRL). Cells were seeded the night before (1.5×10^4 cells/well) in 96-well tissue-culture sterile plates. Compound and no compound controls were prepared in DMEM containing 4% FCS, 1:100 Penicillin/Streptomysin (Gibco-BRL), 1:100 L-glutamine and 5% DMSO in the dilution plate (0.5% DMSO final concentration in the assay). Compound/DMSO mixes were added to the cells and incubated for 4 days at 37° C. After 4 days, cells were first assessed for cytotoxicity using alamar Blue (Trek Diagnotstic Systems) for a CC50 reading. The toxicity of compound (CC50) was determined by adding 1/10th volume of alamar Blue to the media incubating the cells. After 4 hours, the fluorescence signal from each well was read, with an excitation wavelength at 530 nm and an emission wavelength of 580 nm, using the Cytofluor Series 4000 (Perspective Biosystems). Plates were then rinsed thoroughly with Phosphate-Buffered Saline (PBS) (3 times 150 μl). The cells were lysed with 25 μl of a lysis assay reagent containing an HCV protease substrate (5× cell Luciferase cell culture lysis reagent (Promega #E153A) diluted to 1× with distilled water, NaCl added to 150 mM final, the FRET peptide substrate (as described for the enzyme assay above) diluted to 10 μM final from a 2 mM stock in 100% DMSO. […]. The plate was then placed into the Cytofluor 4000 instrument which had been set to 340 nm excitation/490 nm emission, automatic mode for 21 cycles and the plate read in a kinetic mode. EC50 determinations were carried out as described for the IC50 determinations.

Compound | melting point [°C] | pIC50 [1] | pEC50 [2]
CCCC(C)C(=O)O[C@@H]1C[C@H]2C(=O)N[C@]3(C(=O)NS(=O)(=O)C4CC4)C[C@H]3/C=C\COCCC[C@H](NC(=O)OC(C)(C)C)C(=O)N2C1 (stereo partly drawn) [Compound 2, 18-(2-methylvaleryloxy)-14-tert-butoxycarbonylamino-4-cyclopropylsulfonylaminocarbonyl-2,15-dioxo-3,16-diaza-10-oxatricyclo-[14.3.0.0^4,6]-nonadec-7-ene] | 121 to 123 | > 7.00 | < 6.00
CC(C)(C)OC(=O)N[C@H]1CCCOC/C=C\[C@@H]2C[C@@]2(C(=O)NS(=O)(=O)C2CC2)NC(=O)[C@@H]2C[C@@H](OC(=O)C3CCCCC3)CN2C1=O [Compound 3, 18-cyclohexanecarbonyloxy-14-tert-butoxycarbonylamino-4-cyclopropylsulfonylaminocarbonyl-2,15-dioxo-3,16-diaza-10-oxatricyclo-[14.3.0.0^4,6]-nonadec-7-ene] | 128 to 130 | > 7.00 | < 6.00
CC(C)(C)OC(=O)N[C@H]1CCCOC/C=C\[C@@H]2C[C@@]2(C(=O)NS(=O)(=O)C2CC2)NC(=O)[C@@H]2C[C@@H](OC(=O)C(C)(C)C)CN2C1=O [Compound 4, 18-pivaloyloxy-14-tert-butoxycarbonylamino-4-cyclopropylsulfonylaminocarbonyl-2,15-dioxo-3,16-diaza-10-oxatricyclo-[14.3.0.0^4,6]-nonadec-7-ene] | 143 to 145 | > 7.00 | < 6.00
CC(C)(C)OC(=O)N[C@H]1CCCOC/C=C\[C@@H]2C[C@@]2(C(=O)NS(=O)(=O)C2CC2)NC(=O)[C@@H]2C[C@@H](OC(=O)CC3CCCCC3)CN2C1=O [Compound 6, 18-cyclohexaneacetyloxy-14-tert-butoxycarbonylamino-4-cyclopropylsulfonylaminocarbonyl-2,15-dioxo-3,16-diaza-10-oxatricyclo-[14.3.0.0^4,6]-nonadec-7-ene] | 107 to 109 | > 7.00 | < 6.00
COc1ccccc1C(=O)O[C@@H]1C[C@H]2C(=O)N[C@]3(C(=O)NS(=O)(=O)C4CC4)C[C@H]3/C=C\COCCC[C@H](NC(=O)OC(C)(C)C)C(=O)N2C1 [Compound 7, 18-(2-methoxybenzoyloxy)-14-tert-butoxycarbonylamino-4-cyclopropylsulfonylaminocarbonyl-2,15-dioxo-3,16-diaza-10-oxa-tricyclo-[14.3.0.0^4,6]-nonadec-7-ene] | 144 to 146 | > 7.00 | < 6.00
COc1ccc(C(=O)O[C@@H]2C[C@H]3C(=O)N[C@]4(C(=O)NS(=O)(=O)C5CC5)C[C@H]4/C=C\COCCC[C@H](NC(=O)OC(C)(C)C)C(=O)N3C2)c(OC)c1 [Compound 8, 18-(2,4-dimethoxybenzoyloxy)-14-tert-butoxycarbonylamino-4-cyclopropylsulfonylaminocarbonyl-2,15-dioxo-3,16-diaza-10-oxatricyclo-[14.3.0.0^4,6]-nonadec-7-ene] | 122 to 124 | > 7.00 | 6.00 to 7.00
COc1cccc(C(=O)O[C@@H]2C[C@H]3C(=O)N[C@]4(C(=O)NS(=O)(=O)C5CC5)C[C@H]4/C=C\COCCC[C@H](NC(=O)OC(C)(C)C)C(=O)N3C2)c1 [Compound 9, 18-(3-methoxybenzoyloxy)-14-tert-butoxycarbonylamino-4-cyclopropylsulfonylaminocarbonyl-2,15-dioxo-3,16-diaza-10-oxatricyclo-[14.3.0.0^4,6]-nonadec-7-ene] | 149 to 151 | > 7.00 | 6.00 to 7.00
COc1ccc(C(=O)O[C@@H]2C[C@H]3C(=O)N[C@]4(C(=O)NS(=O)(=O)C5CC5)C[C@H]4/C=C\COCCC[C@H](NC(=O)OC(C)(C)C)C(=O)N3C2)cc1 [Compound 10, 18-(4-methoxybenzoyloxy)-14-tert-butoxycarbonylamino-4-cyclopropylsulfonylaminocarbonyl-2,15-dioxo-3,16-diaza-10-oxatricyclo-[14.3.0.0^4,6]-nonadec-7-ene] | 145 to 147 | > 7.00 | 6.00 to 7.00
CC(C)(C)OC(=O)N[C@H]1CCCOC/C=C\[C@@H]2C[C@@]2(C(=O)NS(=O)(=O)C2CC2)NC(=O)[C@@H]2C[C@@H](OC(=O)c3ccc(-c4ccccc4)cc3)CN2C1=O [Compound 11, 18-(4-biphenylcarbonyloxy)-14-tert-butoxycarbonylamino-4-cyclopropylsulfonylaminocarbonyl-2,15-dioxo-3,16-diaza-10-oxatricyclo-[14.3.0.0^4,6]-nonadec-7-ene] | 160 to 162 | > 7.00 | > 7.00

From patent US7772183B2 (Bristol-Myers Squibb Company, priority 2005, dated 2010)
